Experimental data published in patent US8227423B2 (priority 2004, dated 2012).
Ends that are not written are not given here.

Key:
Bacillus subtilis = assay type: cell-based

Sequence | detergent-like (lytic) action (sheep red blood cells) | antibacterial effect in time kill assay (CFU) (Bacillus subtilis)
TRKKLFHIFHATIRSR [PAD-1.17, TRKKLFHIFHATIRSR] | did not appear to act as a detergent | –
RFARKGALRQKNV [Protein kinase C] | – | no effect
